Reference: the NIST ThermoML archive (doi:10.1016/j.jct.2019.05.023)

Experiment: xn = mol fraction of the nth substance listed
Settings: 101.3 kPa, Liquid; for speed of sound: Frequency=3 MHz, Single path-length method; for mass density: Vibrating tube method

CCOCCO [2-ethoxyethan-1-ol] + CCn1cc[n+](C)c1.O=S(=O)([O-])C(F)(F)F
Settings	mass density, 298.15 K [kg/m3]	mass density, 303.15 K [kg/m3]	mass density, 308.15 K [kg/m3]	mass density, 313.15 K [kg/m3]	mass density, 318.15 K [kg/m3]	speed of sound, 298.15 K [m/s]	speed of sound, 303.15 K [m/s]	speed of sound, 308.15 K [m/s]	speed of sound, 313.15 K [m/s]	speed of sound, 318.15 K [m/s]
x2 = 0	926	921	917	912	907	1304	1287	1270	1252	1234
x2 = 0.067	981	976	971	967	962	1321	1305	1289	1272	1256
x2 = 0.133	1029	1024	1020	1015	1011	1333	1318	1302	1286	1271
x2 = 0.192	1066	1062	1058	1053	1049	1344	1329	1314	1299	1283
x2 = 0.268	1112	1107	1103	1099	1094	1356	1342	1328	1313	1299
x2 = 0.35	1157	1152	1148	1144	1139	1369	1355	1342	1328	1315
x2 = 0.428	1196	1191	1187	1183	1178	1380	1367	1354	1341	1328
x2 = 0.54	1245	1241	1237	1233	1228	1395	1383	1370	1358	1346
x2 = 0.609	1272	1268	1264	1260	1255	1403	1391	1379	1368	1356
x2 = 0.674	1295	1291	1287	1283	1278	1411	1399	1387	1376	1364
x2 = 0.734	1314	1310	1306	1302	1297	1417	1406	1394	1383	1372
x2 = 0.799	1332	1328	1324	1320	1315	1424	1412	1401	1390	1379
x2 = 0.884	1354	1350	1346	1342	1337	1431	1420	1409	1398	1387
x2 = 0.951	1371	1367	1363	1359	1354	1437	1425	1414	1403	1392
